From patent publication EP0900207B1, “PYRAZINONE THROMBIN INHIBITORS” (MERCK & CO., INC., priority 1996, dated 1997)

Tested on: Male Sprague-Dawley rats
Experiment: Rat ferric chloride assay of thrombotic occlusion of the carotid artery
Assay type: in vivo
Conditions: continuous intravenous infusion 10 µg/kg/min
Description: Studies of 3-(2-Phenylethylamino)-6-methyl-1-(2-amino-6-methyl-5-methylenecarboxamidomethylpyridinyl)-2-pyridinone using the following rat ferric chloride assay substantially as described in Thrombosis Research, No. 60, page 269(1990) by Kurtz et al were used to determine in vivo activity of the thrombin inhibitors of the invention. Male Sprague-Dawley rats (body weights 200-350 grams) were anesthetized with dial-urethane solution (0.1 ml/100 gm body weight i.p.), and a lateral tail vein was cannulated with a 23 gauge needle connected to a 12 inch length of PE50 tubing. The tubing was attached to a 3-way valve by a tubing adapter. Saline (control) or test compound, as appropriate, was administered via the tail vein catheter. A tracheostomy was performed with a 0.75 inch length of PE205 tubing. The right carotid artery is exposed and a 1.3 mm diameter Doppler flow probe was placed on the vessel. Body temperature was maintained at 37°C using a heat lamp.
6 rats were randomized to continuous intravenous infusions of saline or test compound administered via the tail vein. Test compound was administered at a rate of 10 µg/kg/min. Treatment infusions were initiated 60 min before the placement of a 3 mm square piece of Whatman No. 1 filter paper saturated with 35% FeCl3 onto the exposed carotid artery distal to the flow probe. […]

3-(2-Phenylethylamino)-6-methyl-1-(2-amino-6-methyl-5-methylenecarboxamidomethylpyridinyl)-2-pyridinone [Example LXXXII]
rats showing evidence of thrombotic occlusion (observed up to 90 minutes after application of FeCl3): None
efficacy against thrombotic occlusion (started 60 min before 35% FeCl3 on carotid artery): fully efficacious
